Broadly, the EC50 is the midpoint of the concentration-response curve. As usually defined, the pKb is the Kb on a negative log10 scale, so that one unit is a factor of ten. The term fraction unbound denotes free concentration divided by total concentration.

Structures are written as SMILES. A value given as a limit tells only on which side of the number the result lay.

The target in data set [1] is T1, Muscarinic acetylcholine receptor M1 (Rattus norvegicus, UniProt P08482).
T1 sequence (P08482 whole entry): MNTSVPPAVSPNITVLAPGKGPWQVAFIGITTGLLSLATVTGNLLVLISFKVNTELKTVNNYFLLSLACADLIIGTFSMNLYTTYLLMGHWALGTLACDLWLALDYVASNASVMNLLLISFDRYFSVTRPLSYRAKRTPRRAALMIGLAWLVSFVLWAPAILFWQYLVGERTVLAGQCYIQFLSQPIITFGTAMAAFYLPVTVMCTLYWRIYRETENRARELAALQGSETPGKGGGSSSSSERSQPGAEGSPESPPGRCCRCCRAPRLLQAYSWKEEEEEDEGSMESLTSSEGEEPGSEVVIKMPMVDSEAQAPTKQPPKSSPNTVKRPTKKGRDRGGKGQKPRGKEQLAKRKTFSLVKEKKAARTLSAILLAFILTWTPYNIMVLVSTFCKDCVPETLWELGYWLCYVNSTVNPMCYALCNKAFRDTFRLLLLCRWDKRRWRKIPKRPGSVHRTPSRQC
Put plainly: (§1) Positive allosteric modulation of rat M1 receptor expressed in CHO cells assessed as increase in acetylcholine-induced calcium mobilization pretreated for 2.5 mins followed by acetylcholine addition and measured after 1 min by Fluo-4-AM dye based assay. The class given is functional, cell-based. The following applies: read-out: EC50.

Data set [2] addresses T2, Muscarinic acetylcholine receptor M1 (Rattus norvegicus) (UniProt P08482).
T2 sequence (whole entry): T1 sequence (P08482 whole entry)
Described as §1. Type of data set: functional, cell-based.

Data set [3] in a line: Drug level in C57BL/6J mouse brain at 100 mg/kg, ip measured after 1 hr. Type of data set: ADME, organism-based. The settings on record: read-out: Drug uptake.
In data set [4] the test system is Mus musculus. Put plainly: Cholinergic toxicity in C57BL/6J mouse assessed as induction of seizure activity at 100 mg/kg, ip measured within 30 mins. The class given is organism-based. The settings on record: in vivo, 0.5 h.
The nature of data set [5]: Ratio of unbound brain to plasma concentration in cannulated Sprague-Dawley rat at 0.2 mg/kg, iv administered via jugular vein as cassette dose measured after 0.25 hrs by LC-MS/MS analysis. The following applies: Sprague-Dawley, brain and plasma, read-out: K(p,uu,brain). The class given is ADME, organism-based.
The nature of data set [6]: Protein binding in human plasma assessed as unbound fraction at 5 uL measured after 4 hrs by LC-MS/MS based equilibrium dialysis method. The class given is ADME, cell-free. A general note: In equilibrium dialysis free small molecules cross a membrane that holds back macromolecules.
Data set [7] deals with T3, Muscarinic acetylcholine receptor M2 (Homo sapiens, UniProt P08172).
T3 sequence (P08172 whole entry): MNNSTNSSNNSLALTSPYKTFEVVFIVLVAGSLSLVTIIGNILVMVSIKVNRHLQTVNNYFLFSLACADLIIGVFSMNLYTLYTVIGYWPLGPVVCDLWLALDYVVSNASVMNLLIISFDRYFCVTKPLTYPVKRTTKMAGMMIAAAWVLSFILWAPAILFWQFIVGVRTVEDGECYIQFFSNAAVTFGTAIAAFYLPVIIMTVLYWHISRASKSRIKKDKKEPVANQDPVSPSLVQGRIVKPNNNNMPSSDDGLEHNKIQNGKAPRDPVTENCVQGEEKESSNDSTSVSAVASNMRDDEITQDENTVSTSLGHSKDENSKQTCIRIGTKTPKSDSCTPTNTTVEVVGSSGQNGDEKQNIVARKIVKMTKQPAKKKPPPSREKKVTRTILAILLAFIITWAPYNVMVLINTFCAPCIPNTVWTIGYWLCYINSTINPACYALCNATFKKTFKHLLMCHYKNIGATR
The experiment in a line: Positive allosteric modulation of human M2 receptor expressed in CHO cells co-expressing Gqi5 assessed as increase in acetylcholine-induced calcium mobilization pretreated for 2.5 mins followed by acetylcholine addition and measured after 1 min by Fluo-4-AM dye based assay. The class given is functional, cell-based. A general note: Calcium flux is commonly read through the fluorescence of an indicator in the cells.

On to `Cn1cc(-c2ccc(Cc3cc(C(=O)NC4CCOCC4)nc4c3ccn4C)cn2)cn1`, for which the EC50 in data set [1] came out at 230 nM. In data set [2], the %max amounted to 93% and the negative-log Kb (pKb) came out at 4.82. Further, the concentration at 1 h in data set [3] came to 7 µM. Moreover, in data set [4], the Activity result is given as “Non-Toxic”. The Kp uu at 0.25 h in data set [5] is 0.32. Besides, the fraction unbound at 4 h, 5 uL in data set [6] worked out at 0.04. Moreover, the half-maximal effective concentration (EC50) in data set [7] is > 30 µM.
